Experimental data taken from paper PMC10165273, “Itch receptor MRGPRX4 interacts with the receptor activity–modifying proteins” (The Journal of Biological Chemistry, 2023).
Several values for one entry are separate records, joined by “and”; a condition that tells them apart may be missing. Equal entries are not always repeated. Where two headings read alike, the source gives them in different places.

Experiments:
[1] = molecular target: T1, MRGPRX4 + RAMP3 (Homo sapiens, UniProt Q96LA9); assay: IP1 accumulation, MRGPRX4 coexpressed with RAMP3; assay type: cell-based; design: key to IP1 Basal / response to agonist, X4:ramp3.I:0.25 / response to agonist, X4:ramp3.I:0.5 / response to agonist, X4:ramp3.I:1: % IP1; unstimulated mock = 0%, fully stimulated MRGPRX4 = 100%; conditions: for activation at 100 µM / activation at 20 µM / activation at 4 µM / activation at 0.8 µM / activation at […] / activation at 0.032 µM: 2 h, Fig S3f, read-out: IP1 accumulation; for activation at 100 µM: log [DCA] (M) -4; for activation at 20 µM: log [DCA] (M) -4.69897; for activation at 4 µM: log [DCA] (M) -5.39794; for activation at 0.8 µM: log [DCA] (M) -6.09691; for activation at […]: log [DCA] (M) -6.79588; for activation at 0.032 µM: log [DCA] (M) -7.49485
T1 construct: expressed in transfected cells; host or cells: HEK293T
T1 sequence (Q96LA9 whole entry): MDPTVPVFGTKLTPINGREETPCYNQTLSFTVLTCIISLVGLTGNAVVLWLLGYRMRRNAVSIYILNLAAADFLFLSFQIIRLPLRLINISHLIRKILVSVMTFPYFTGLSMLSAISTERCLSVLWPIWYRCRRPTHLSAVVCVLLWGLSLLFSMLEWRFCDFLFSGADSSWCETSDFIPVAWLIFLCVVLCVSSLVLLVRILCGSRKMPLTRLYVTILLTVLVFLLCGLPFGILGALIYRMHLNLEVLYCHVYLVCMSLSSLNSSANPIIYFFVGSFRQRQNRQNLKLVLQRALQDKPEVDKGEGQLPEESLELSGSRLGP
Protocol: (§1) HEK293T cells were transfected with 1 pg/cell of MRGPRX4 DNA, and the amount of DNA was kept constant at 2 pg/cell with pcDNA3.1(+) empty vector, unless otherwise specified. Twenty four hours after transfection, IP1 assay was performed as previously described ([51]). When applicable, cells were treated with 1 μM YM254890 (YM) or different concentrations of U73122 for 1 h prior to addition of agonist or buffer. After incubation for 2 h, HTRF reagents and IP1 calibration standards were added and incubated for 2 h in the dark at room temperature. Time-resolved fluorescence signals were read on the BioTek Synergy NEO-TRF Hybrid multi-mode reader (BioTek Instruments). All data were carried out in three independent experiments with three technical replicate each.
(§2) For RAMP DNA titration assay, HEK293T cells were cotransfected with a constant amount of 1 pg/cell of FLAG-MRGPRX4-GFP10-1D4 to which a serial dilution of 1, 0.75, 0.5, 0.25, or 0 pg/cell of each HA-RAMP-OLLAS was added. For a homogenous transfection of MRGPRX4, a master mix of MRGPRX4 DNA was made prior to addition of the RAMP DNA. […]
(§3) Data reduction, standard calibration, and transformation of HTRF data were performed as previously described ([51]). Normalized IP1 values were calculated relative to the unstimulated mock-transfected cells (set to 0%) and fully stimulated MRGPRX4 (alone if applicable) (set to 100%).

[2] = molecular target: T2, MRGPRX4 + RAMP2 (Homo sapiens, UniProt Q96LA9); assay: IP1 accumulation, MRGPRX4 coexpressed with RAMP2; assay type: cell-based; design: key to response to agonist, X4:ramp2.I:2: % IP1: mock-transfected unstimulated = 0%, fully stimulated MRGPRX4 = 100%; key to IP1 Basal / response to agonist, X4:ramp2.I:0.25 / response to agonist, X4:ramp2.I:0.5 / response to agonist, X4:ramp2.I:1: % IP1; unstimulated mock = 0%, fully stimulated MRGPRX4 = 100%; conditions: for activation at 20 µM / activation at 4 µM / activation at 0.8 µM / activation at […] / activation at 0.032 µM / activation at 100 µM: 2 h, Fig S3e, read-out: IP1 accumulation; for activation at 20 µM: log [DCA] (M) -4.69897; for activation at 4 µM: log [DCA] (M) -5.39794; for activation at 0.8 µM: log [DCA] (M) -6.09691; for activation at […]: log [DCA] (M) -6.79588; for activation at 0.032 µM: log [DCA] (M) -7.49485; for activation at 100 µM: log [DCA] (M) -4; for IP1 Basal / IP1 span (Emax minus basal) / Emax: normalized per agonist; for Emax: read-out: IP1 Emax
T2 construct: expressed in transfected cells; host or cells: HEK293T
T2 sequence (Q96LA9 whole entry): as above
Protocol: as §1, §2, §3

[3] = system: mock-transfected HEK293T cells; assay: IP1 accumulation, mock-transfected cells; assay type: cell-based, human; design: IP1 Basal / IP1 span / IP1 Emax / IP1 accumulation, dose-response (Figure 1a) / IP1 accumulation with YM (Figure 1c) / IP1 accumulation: unit not given here; conditions: for IP1 accumulation, dose-response (Figure 1a): pcDNA (mock), individual replicates; for IP1 accumulation: mock, Fig S3d-f
Protocol: as §1
Validation of CALCRL constructs was assayed by cotransfecting HEK293T cells with different tagged versions of CALCRL alone or with each RAMP and with the promiscuous Gqs5 Gq chimera protein, at a respective DNA ratio of 1:1:0.5. Gqs5 is an engineered Gq protein containing the last five amino acid residues of Gs, which allows Gs-coupled GPCRs to signal through Gq downstream signaling pathways ([55]). The homogenous transfection method described above was used for all DNA mixes. CALCRL:RAMP2:Gqs5-transfected cells served as positive control for RAMP functionality.
as §3

[4] = MRGPRX4 + RAMP3 0.25 pg (Fig. S3), normalized per agonist
[5] = MRGPRX4 + RAMP3 0.5 pg (Fig. S3), normalized per agonist
[6] = MRGPRX4 + RAMP3 1 pg (Fig. S3), normalized per agonist
[7] = MRGPRX4 + RAMP3 2 pg (Fig. S3), normalized per agonist
[8] = MRGPRX4 + RAMP2 0.25 pg (Fig. S3)
[9] = MRGPRX4 + RAMP2 0.5 pg (Fig. S3)
[10] = Mock, MRGPRX4 construct comparison (Fig. S4B,C-F)

C[C@H](CCC(=O)O)[C@H]1CC[C@H]2[C@@H]3CC[C@@H]4C[C@H](O)CC[C@]4(C)[C@H]3C[C@H](O)[C@]12C [DCA, deoxycholic acid]
activation at 100 µM ([1]; ratio MRGPRX4:RAMP3 1:0.25): 92.7%
activation at 20 µM ([1]; ratio MRGPRX4:RAMP3 1:0.25): 69.5%
activation at 4 µM ([1]; ratio MRGPRX4:RAMP3 1:0.25): 48.4%
activation at 0.8 µM ([1]; ratio MRGPRX4:RAMP3 1:0.25): 35.7%
activation at […] ([1]; ratio MRGPRX4:RAMP3 1:0.25): 34.1%
activation at 0.032 µM ([1]; ratio MRGPRX4:RAMP3 1:0.25): 31.5%
activation at 100 µM ([1]; ratio MRGPRX4:RAMP3 1:0.5): 90.4%
activation at 20 µM ([1]; ratio MRGPRX4:RAMP3 1:0.5): 53.8%
activation at 4 µM ([1]; ratio MRGPRX4:RAMP3 1:0.5): 33.6%
activation at 0.8 µM ([1]; ratio MRGPRX4:RAMP3 1:0.5): 22%
activation at […] ([1]; ratio MRGPRX4:RAMP3 1:0.5): 21.2%
activation at 0.032 µM ([1]; ratio MRGPRX4:RAMP3 1:0.5): 21.7%
activation at 100 µM ([1]; ratio MRGPRX4:RAMP3 1:1): 97.9%
activation at 20 µM ([1]; ratio MRGPRX4:RAMP3 1:1): 49.2%
activation at 4 µM ([1]; ratio MRGPRX4:RAMP3 1:1): 28.3%
activation at 0.8 µM ([1]; ratio MRGPRX4:RAMP3 1:1): 19.5%
activation at […] ([1]; ratio MRGPRX4:RAMP3 1:1): 19.6%
activation at 0.032 µM ([1]; ratio MRGPRX4:RAMP3 1:1): 18.9%
activation at 20 µM ([1]; ratio MRGPRX4:RAMP3 1:2): 48.1%
activation at 4 µM ([1]; ratio MRGPRX4:RAMP3 1:2): 23.1%
activation at […] ([1]; ratio MRGPRX4:RAMP3 1:2): 16.8%
activation at 0.032 µM ([1]; ratio MRGPRX4:RAMP3 1:2): 15.3%
Emax ([1]; Figure 4a bottom, DNA ratio MRGPRX4:RAMP3 1:0.75, MRGPRX4 alone = 100, read-out: efficacy): 74.9%
response to agonist, X4:ramp3.I:0.25 ([1]; Figure 4c-f, agonist 100µM, X4:ramp3 1:0.25, MRGPRX4 = 100): 83.1455 and 78.9266
response to agonist, X4:ramp3.I:0.5 ([1]; Figure 4c-f, agonist 100µM, X4:ramp3 1:0.5, MRGPRX4 = 100): 72.4625 and 76.3406
response to agonist, X4:ramp3.I:1 ([1]; Figure 4c-f, agonist 100µM, X4:ramp3 1:1, MRGPRX4 = 100): 72.2618 and 56.5732
IP1 Basal [1, 4]: 26.80
IP1 span (top minus basal of the concentration-response fit) [1, 4]: 84.2%
Emax ([1]; MRGPRX4 + RAMP3 0.25 pg (Fig. S3), normalized per agonist, read-out: IP1 Emax): 111%
IP1 Basal [1, 5]: 21.60
IP1 span (top minus basal of the concentration-response fit) [1, 5]: 78.8%
Emax ([1]; MRGPRX4 + RAMP3 0.5 pg (Fig. S3), normalized per agonist, read-out: IP1 Emax): 100%
IP1 Basal [1, 6]: 23.28
IP1 span (top minus basal of the concentration-response fit) [1, 6]: 92.1%
Emax ([1]; MRGPRX4 + RAMP3 1 pg (Fig. S3), normalized per agonist, read-out: IP1 Emax): 115%
IP1 Basal [1, 7]: 14.52
IP1 span (top minus basal of the concentration-response fit) [1, 7]: 85.8%
Emax ([1]; MRGPRX4 + RAMP3 2 pg (Fig. S3), normalized per agonist, read-out: IP1 Emax): 100%
activation at 20 µM ([2]; ratio MRGPRX4:RAMP2 1:0.25): 59.5%
activation at 4 µM ([2]; ratio MRGPRX4:RAMP2 1:0.25): 39%
activation at 0.8 µM ([2]; ratio MRGPRX4:RAMP2 1:0.25): 28.2%
activation at […] ([2]; ratio MRGPRX4:RAMP2 1:0.25): 28.2%
activation at 0.032 µM ([2]; ratio MRGPRX4:RAMP2 1:0.25): 29.4%
activation at 20 µM ([2]; ratio MRGPRX4:RAMP2 1:0.5): 51.9%
activation at 4 µM ([2]; ratio MRGPRX4:RAMP2 1:0.5): 28.9%
activation at 0.8 µM ([2]; ratio MRGPRX4:RAMP2 1:0.5): 21.9%
activation at […] ([2]; ratio MRGPRX4:RAMP2 1:0.5): 21.5%
activation at 100 µM ([2]; ratio MRGPRX4:RAMP2 1:1): 56.6%
activation at 20 µM ([2]; ratio MRGPRX4:RAMP2 1:1): 35%
activation at 0.8 µM ([2]; ratio MRGPRX4:RAMP2 1:1): 13.8%
activation at […] ([2]; ratio MRGPRX4:RAMP2 1:1): 13.1%
activation at 0.032 µM ([2]; ratio MRGPRX4:RAMP2 1:1): 13.2%
activation at 100 µM ([2]; ratio MRGPRX4:RAMP2 1:2): 20.6%
activation at 20 µM ([2]; ratio MRGPRX4:RAMP2 1:2): 10.3%
activation at 4 µM ([2]; ratio MRGPRX4:RAMP2 1:2): 5.86%
activation at […] ([2]; ratio MRGPRX4:RAMP2 1:2): 6.3%
activation at 0.032 µM ([2]; ratio MRGPRX4:RAMP2 1:2): 5.62%
response to agonist, X4:ramp2.I:0.25 ([2]; Figure 4c-f, agonist 100µM, X4:ramp2 1:0.25, MRGPRX4 = 100): 82.2333 and 78.588
response to agonist, X4:ramp2.I:0.5 ([2]; Figure 4c-f, agonist 100µM, X4:ramp2 1:0.5, MRGPRX4 = 100): 59.4831 and 67.5869
response to agonist, X4:ramp2.I:1 ([2]; Figure 4c-f, agonist 100µM, X4:ramp2 1:1, MRGPRX4 = 100): 42.5729 and 40.2351
response to agonist, X4:ramp2.I:2 ([2]; Figure 4c-f, agonist 100µM, X4:ramp2 1:2, MRGPRX4 = 100): 19.2213 and 20.608
IP1 Basal [2, 8]: 22.40
IP1 span (Emax minus basal) [2, 8]: 84.8%
Emax [2, 8]: 107%
IP1 Basal [2, 9]: 17.50
IP1 span (Emax minus basal) [2, 9]: 77%
Emax [2, 9]: 94.5%
IP1 Basal ([2]; MRGPRX4 + RAMP2 1 pg (Fig. S3)): 11.18
IP1 span (Emax minus basal) ([2]; MRGPRX4 + RAMP2 1 pg (Fig. S3)): 45%
Emax ([2]; MRGPRX4 + RAMP2 1 pg (Fig. S3)): 56.2%
IP1 Basal ([2]; MRGPRX4 + RAMP2 2 pg (Fig. S3)): 5.412
IP1 span (Emax minus basal) ([2]; MRGPRX4 + RAMP2 2 pg (Fig. S3)): 24.4%
Emax ([2]; MRGPRX4 + RAMP2 2 pg (Fig. S3)): 29.9%
Emax ([3]; Homo sapiens, HEK-293T, Mock, MRGPRX4 construct comparison (Fig. S4B,C-F)): 0.236%
IP1 Basal [3, 10]: 2.330
IP1 span [3, 10]: -2.094
IP1 accumulation, dose-response (Figure 1a) ([3]; log [agonist] (M) -4): 0.2103 and 0.3669 and 0.293 and -0.07837 and 0.1649 and -0.08879 and 0.2113 and -0.2385 and -0.6593 and -0.4375 and -0.5166 and -0.9554
IP1 accumulation, dose-response (Figure 1a) ([3]; log [agonist] (M) -4.95424): 0.553 and 0.2642 and 0.3806 and 0.3517 and 0.05455 and 0.247 and 0.3525 and -0.3352 and -0.4263 and -0.5038 and 0.5136 and -0.7508
IP1 accumulation, dose-response (Figure 1a) ([3]; log [agonist] (M) -5.90849): 0.1227 and 0.5487 and 0.6873 and 0.2386 and 0.02519 and 0.3705 and 0.5521 and -0.1483 and -0.4243 and -0.2808 and 0.06832 and -0.3071
IP1 accumulation, dose-response (Figure 1a) ([3]; log [agonist] (M) -6.86273): 0.3536 and 0.9227 and 0.8938 and 0.5392 and 0.2564 and 0.9514 and 0.9872 and 0.3929 and 0.5666 and 0.2655 and 0.4716 and 0.3728
IP1 accumulation ([3]; log [DCA] (M) -4): 1.182 and 0.9551 and 1.627
IP1 accumulation ([3]; log [DCA] (M) -5.39794): 0.3631 and 0.268 and 0.3023
